Experimental findings from patent US8030336B2, “Nicotinamide-based kinase inhibitors” (YM Biosciences Australia Pty Ltd, priority 2002, dated 2011) are described below.

Type in all cases: biochemical
In one assay the target is T1, human JAK2 (Homo sapiens, UniProt O60674).
T1 construct: The kinase domain of human JAK2 was amplified from U937mRNA; His tag (from the pFastBac HTc vector) (N); made in house; host or cells: baculovirus; Sf9 for virus, High Five insect cells for production
The assay is described as follows: JAK2 kinase assay (ELISA or Alphascreen). Particulars: read-out: Jak2 inhibition of enzyme activity. From the text:
The kinase domain of human JAK2 was amplified from U937mRNA using the polymerase chain reaction with the following primers: […]
JAK2 PCR products were doped into the pFastBac HTc expression vector (Gibco) via the Sal I and Not I sites. The JAK2 plasmid was than transformed into competent DH10Bac cells (Gibco), and the recombinant baculovirus produced prepared for transfection into Sf9 insect cells.
(§1) Baculovirus preparations from each of the JAK family members were infected into five liters of High Five cells (Invitrogen) grown in High Five serum free medium (Invitrogen) to a cell density of approximately 1-2×10^6 cells/ml. Cells are infected with virus at a MOI of 0.8-3.0. Cells were harvested and lysed. JAK kinase domains were purified by affinity chromatography on a Probond (Invitrogen) nickel chelate affinity column.
(§2) Kinase assays were performed in a 96 well capture-based ELISA assay or in 384 well Optiplates (Packard) using an Alphascreen Protein Tyrosine Kinase kit. In either case using approximately 1.5 μg of affinity purified PTK domain in the presence of 50 mM HEPES, pH 7.5, 10 mM MgCl2, 150 mM NaCl and 10 μM-1 mM ATP. The biotinylated substrate biotin-EGPWLEEEEEAYGWMDF-NH2 (SEQ ID NO:9) (final concentration 5 μM) was used as substrate. In the ELISA assay tyrosine phosphorylation was quantitated following transfer to an avidin coated ELISA plate using peroxidase-linked anti-phosphotyrosine antibody PY20. In the Alphascreen assay, Alphascreen phosphotyrosine acceptor beads followed by streptavidin donor beads were added under subdued light. The ELISA plates were read on a BMG Fluorostar, the Alphascreen plates were read on a Packard Fusion Alpha. Inhibitors were added to the assays fifteen minutes prior to the addition of ATP. Inhibitors were added in aqueous […] concentrations never exceeding 1%.
On the technique in general: An ELISA detects its analyte on a solid surface through an enzyme-linked reagent.

The target in the next assay is T2, abl (Homo sapiens, UniProt P00519).
T2 sequence (P00519 242-493 limits assumed): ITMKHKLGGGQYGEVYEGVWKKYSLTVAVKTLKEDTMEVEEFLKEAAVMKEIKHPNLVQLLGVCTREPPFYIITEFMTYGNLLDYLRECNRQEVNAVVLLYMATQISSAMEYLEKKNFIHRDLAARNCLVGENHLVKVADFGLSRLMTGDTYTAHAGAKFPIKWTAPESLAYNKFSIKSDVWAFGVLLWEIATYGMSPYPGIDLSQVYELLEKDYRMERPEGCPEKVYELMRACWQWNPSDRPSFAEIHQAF
The assay is described as follows: abl kinase assay (ELISA or Alphascreen). The note with it: read-out: abl inhibition of enzyme activity. The procedure:
as §2

In another assay the target is fes (Homo sapiens, UniProt P07332). In words: fes kinase assay (ELISA or Alphascreen). Particulars: read-out: fes inhibition of enzyme activity. On the procedure:
as §2

A further assay deals with T3, fms (Homo sapiens, UniProt P07333).
T3 sequence (P07333 582-910 limits assumed): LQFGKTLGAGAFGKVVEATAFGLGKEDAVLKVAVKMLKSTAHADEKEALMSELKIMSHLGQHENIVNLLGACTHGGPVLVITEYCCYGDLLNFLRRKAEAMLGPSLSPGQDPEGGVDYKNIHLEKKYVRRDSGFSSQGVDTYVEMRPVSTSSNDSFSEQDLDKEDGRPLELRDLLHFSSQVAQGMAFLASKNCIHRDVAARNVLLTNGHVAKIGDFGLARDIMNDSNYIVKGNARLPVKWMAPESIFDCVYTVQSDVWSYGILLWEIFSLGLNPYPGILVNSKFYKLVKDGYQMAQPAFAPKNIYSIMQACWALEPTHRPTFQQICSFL
In words: fms kinase assay (ELISA or Alphascreen). The note with it: read-out: fms inhibition of enzyme activity. On the procedure: as §2

For a further assay, the target named is T4, Zap70 (Homo sapiens, UniProt P43403).
T4 sequence (P43403 338-600 limits assumed): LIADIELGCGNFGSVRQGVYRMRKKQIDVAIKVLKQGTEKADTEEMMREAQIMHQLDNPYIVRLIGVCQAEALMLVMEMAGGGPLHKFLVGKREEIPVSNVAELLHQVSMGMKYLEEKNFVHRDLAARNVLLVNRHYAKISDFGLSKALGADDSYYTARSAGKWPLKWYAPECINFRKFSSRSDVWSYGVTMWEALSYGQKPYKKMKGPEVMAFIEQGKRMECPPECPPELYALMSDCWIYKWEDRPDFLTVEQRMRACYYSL
In words: Zap70 kinase assay (ELISA or Alphascreen). The note with it: read-out: Zap70 inhibition of enzyme activity. On the procedure:
as §2

In another assay the target is T5, human JAK3 (Homo sapiens, UniProt P52333).
T5 construct: The kinase domain of human JAK3 was amplified from U937mRNA; His tag (from the pFastBac HTb vector) (N); made in house; host or cells: baculovirus; Sf9 for virus, High Five insect cells for production
In words: JAK3 kinase assay (ELISA or Alphascreen). Particulars: read-out: Jak3 inhibition of enzyme activity.
Text: The kinase domain of human JAK3 was amplified from U937mRNA using the polymerase chain reaction with the following primers: […]
JAK3 PCR products were cloned into the pFastBac HTb expression vector (Gibco) via the Xho I and Kpn I sites. The JAK3 plasmid was then transformed into competent DH10Bac cells (Gibco), and the recombinant baculovirus produced prepared for transfection into Sf9 insect cells.
as §1, §2

T1 sequence (O60674 849-1124 limits assumed): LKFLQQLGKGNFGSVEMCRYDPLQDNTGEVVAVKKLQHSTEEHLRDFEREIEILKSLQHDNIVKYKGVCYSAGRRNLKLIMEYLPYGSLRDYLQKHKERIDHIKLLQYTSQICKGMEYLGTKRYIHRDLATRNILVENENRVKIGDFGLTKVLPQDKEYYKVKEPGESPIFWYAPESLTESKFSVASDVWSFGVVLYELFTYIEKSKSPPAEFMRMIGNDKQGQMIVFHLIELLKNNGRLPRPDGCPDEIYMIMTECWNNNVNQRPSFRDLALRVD
fes, sequence (P07332 561-822 limits assumed, species assumed): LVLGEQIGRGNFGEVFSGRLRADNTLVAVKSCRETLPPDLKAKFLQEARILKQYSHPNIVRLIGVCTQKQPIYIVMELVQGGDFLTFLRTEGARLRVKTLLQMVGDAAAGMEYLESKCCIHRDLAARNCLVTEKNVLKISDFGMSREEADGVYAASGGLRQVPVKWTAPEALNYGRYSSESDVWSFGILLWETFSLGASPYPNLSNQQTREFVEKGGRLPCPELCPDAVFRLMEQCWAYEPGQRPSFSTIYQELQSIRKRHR
T5 sequence (P52333 822-1111 limits assumed): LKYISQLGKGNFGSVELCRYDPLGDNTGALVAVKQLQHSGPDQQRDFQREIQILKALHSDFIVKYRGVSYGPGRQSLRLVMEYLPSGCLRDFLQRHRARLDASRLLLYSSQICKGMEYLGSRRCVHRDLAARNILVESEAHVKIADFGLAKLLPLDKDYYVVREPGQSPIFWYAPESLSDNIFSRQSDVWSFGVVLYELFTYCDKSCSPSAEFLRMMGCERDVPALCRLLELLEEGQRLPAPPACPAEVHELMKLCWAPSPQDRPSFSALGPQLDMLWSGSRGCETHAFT

Regarding `Cc1cc(-c2cncc(C(=O)N[C@@H](C)c3ccccc3)c2)cc(C)c1O`, the inhibition at 10 µM on human JAK2, on abl, at fes, at fms and on Zap70 was less than 50% throughout.

Take `COc1ccc(NC(=O)c2cncc(-c3cc(C)c(O)c(C)c3)c2)c(OC)c1`: the inhibition at 10 µM at human JAK2, at human JAK3, on abl, at fes and on Zap70 was less than 50% in each case.

`COc1cc(-c2cncc(C(=O)NC(CO)C(C)C)c2)c(Cl)c(OC)c1OC` (stereo not shown): the inhibition at 10 µM at human JAK2, at human JAK3, on abl, at fms and on Zap70 was less than 50% throughout.

In the case of `COc1cc(-c2cncc(C(=O)NCc3ccc(C)cc3)c2)c(Cl)c(OC)c1OC`, the inhibition at 10 µM on human JAK2, on human JAK3, at abl, on fes and on Zap70 was less than 50% throughout.

`COc1ccc(NC(=O)c2cncc(-c3cc(OC)c(OC)c(OC)c3Cl)c2)c(OC)c1`: the inhibition at 10 µM at human JAK2, on human JAK3, on abl, on fes, at fms and on Zap70 was less than 50% each time.

Regarding `O=C(NCc1ccc(Cl)c(Cl)c1)c1cncc(-c2ccc3c(c2)OCO3)c1`, the inhibition at 10 µM on human JAK2, at human JAK3, at fes, on fms and on Zap70 was less than 50% throughout.

For the compound `O=C(Nc1ccccc1)c1cncc(-c2ccc3c(c2)OCO3)c1`, the inhibition at 10 µM at human JAK2, at human JAK3, at abl, on fes, on fms and at Zap70 was less than 50% each time.

As to `Cc1ccc(C)c(NC(=O)c2cncc(-c3ccc4c(c3)OCO4)c2)c1`, the inhibition at 10 µM on human JAK2, on human JAK3, on abl, on fes, on fms and on Zap70 was less than 50% each time.

In the case of `O=C(NCCO)c1cncc(-c2cccs2)c1`, the inhibition at 10 µM on human JAK2, at human JAK3, at abl, on fes, at fms and on Zap70 was less than 50% throughout.

For `Cc1ccc(C)c(NC(=O)c2cncc(-c3cccs3)c2)c1`, the inhibition at 10 µM on human JAK2 was less than 50%; at human JAK3, less than 50%; on abl, less than 50%; on fes it was no less than 50%; at fms, less than 50%; on Zap70, less than 50%.

As for `Cc1cc(F)ccc1NC(=O)c1cncc(-c2cccs2)c1`, the inhibition at 10 µM on human JAK3, on abl, at fes, on fms and on Zap70 was less than 50% in each case.

Regarding `Cc1ccccc1NC(=O)c1cncc(-c2cccnc2)c1`, the inhibition at 10 µM on human JAK2, at human JAK3, at abl, on fes, on fms and at Zap70 was less than 50% throughout.

Regarding `CN1CCN(c2ccc(CNC(=O)c3cncc(-c4ccc(F)cc4)c3)cc2)CC1`, the inhibition at 10 µM on human JAK2, at human JAK3, on fes, at fms and at Zap70 was less than 50% throughout.

On to `O=C(NCc1ccc(F)cc1)c1cncc(-c2ccc(F)cc2)c1`, for which the inhibition at 10 µM on human JAK2 was no less than 50%; at human JAK3, less than 50%; on abl, less than 50%; on fes it was less than 50%; on fms, less than 50%; on Zap70, less than 50%.

With `O=C(NCc1ccncc1)c1cncc(-c2ccc(F)cc2)c1`, the inhibition at 10 µM on human JAK2, on human JAK3, on abl, at fes, at fms and on Zap70 was less than 50% throughout.

On to `CN1CCN(c2ccc(NC(=O)c3cncc(-c4ccc(F)cc4)c3)cc2)CC1`, for which the inhibition at 10 µM at human JAK2, at human JAK3, at abl, on fms and at Zap70 was less than 50% in each case.

Consider `O=C(NCCCn1ccnc1)c1cncc(-c2ccc(F)cc2)c1`, for which the inhibition at 10 µM at human JAK2, at human JAK3, on fes, on fms and at Zap70 was less than 50% throughout.

For the compound `Cc1ccccc1NC(=O)c1cncc(-c2ccc(F)cc2)c1`, the inhibition at 10 µM on human JAK2, at human JAK3, on abl, on fes and on Zap70 was less than 50% throughout.

Regarding `C[C@H](NC(=O)c1cncc(-c2cccnc2)c1)c1ccccc1`, the inhibition at 10 µM on human JAK2, on human JAK3, at fes, at fms and at Zap70 was less than 50% each time.

As to `O=C(NCc1ccco1)c1cncc(-c2cccnc2)c1`, the inhibition at 10 µM on human JAK2, at human JAK3, on fes, at fms and at Zap70 was less than 50% in each case.

For `C[C@@H](NC(=O)c1cncc(-c2ccc(F)cc2)c1)c1ccccc1`, the inhibition at 10 µM at human JAK2, at human JAK3, on fes, at fms and on Zap70 was less than 50% each time.

Take `COc1cccc(-c2cncc(C(=O)Nc3cc(F)ccc3C)c2)c1`: the inhibition at 10 µM on human JAK2 was less than 50%; at human JAK3 it was less than 50%; at abl, less than 50%; on fes, less than 50%; on Zap70 it was no less than 50%.

By inhibition is commonly meant the change of the read-out against control, counted positive when it falls.
